The assay deals with nfP2X7 receptors. Briefly: ELISA of specific anti-nfP2X7 antibody response in patient serum after immunisation with peptide-KLH conjugate. It is filed as in vivo, human. As to the method: Peptide immunogen was synthesised to high purity in the form GHNYTTRNILPGLNITC (SEQ ID NO:2) to which was added the cross-linker maleimidocaproyl-N-hydroxysuccinimide (MCS) at the C-terminal Cys residue. The peptide was cross-linked to a carrier protein Keyhole Limpet Hemocyanin (KLH) such that the average percentage of peptide to total peptide-protein conjugate was 40%. This peptide or the alternative peptide […] (SEQ ID NO:5) similarly conjugated to KLH constituted selective epitope targets, primary and compound respectively that enabled differentiation of the nfP2X7 receptors to be made from native receptors.
The peptide-protein conjugate was added at a concentration of 2.5 mg/mL conjugate (1 mg/mL peptide) dropwise with thorough mixing in the adjuvant in an amount equal to 0.5 mL conjugate to 0.75 mL adjuvant containing 0.5 mg of target peptide epitope.
The immunisation schedule consisted of a primary inoculation (two injections subcutaneously and two injections intramuscularly) of a total of 0.5 mg peptide followed a month later with a boost applied the same way with 0.3 mg peptide. Serum samples were collected immediately prior to and a week post injections. Inoculation is ideally administered no less than a month after the final infusion of anti-nfP2X7 antibody to ensure no sequestration of the immunogen by residual specific anti-nfP2X7 antibody infusate.
Specific anti-nfP2X7 antibody responses were measured by ELISA. In brief, the ELISA plate was coated with specific target peptide epitope, either naked or conjugated to a carrier other than the one against which the antibody response was generated, over which patient serum is added in a descending concentration. After washing, an appropriate secondary anti-human antibody (anti-IgM or anti-IgG types) is applied to detect and determine the concentration of specific human anti-nfP2X7 antibody present in the patient serum in the form of IgM or IgG.

Setting [1] is: following the primary inoculation (0.5 mg peptide).

Take GHNYTTRNILPGLNITC: the “specific anti-nfP2X7 IgM concentration in patient serum (ELISA)” value (following the boost (0.3 mg peptide)) is given as “returned to a baseline of zero”. Further, the “specific anti-nfP2X7 IgG concentration in patient serum (ELISA)” value (following the boost, provided no nfP2X7 receptor sink is present on extant tumor) is given as “higher concentration than the original IgM”. Under setting [1], the “specific anti-nfP2X7 IgG in patient serum (ELISA)” value was “no IgG is detectable” and the “specific anti-nfP2X7 IgM in patient serum (ELISA)” value was “a small amount of IgM is detected”. Further, the “circulating anti-nfP2X7 antibody response in serum (ELISA)” value (patient with moderate tumor burden, Week 13, 9 weeks post boost) is listed as “small level”. Also, under “patient with moderate tumor burden, intermediate measurements Weeks 5 to 12”, the “circulating antibody present in serum (ELISA)” value is listed as “little circulating antibody was present”. In addition, the “antibodies to the peptide detected in serum (ELISA)” value (patient with moderate tumor burden, pre-boost serum at Week 4, 4 weeks post initial immunisation) was “No antibodies were detected”. Moreover, under “patient with very small residual tumor burden, Week 5, 1 week post boost”, the “circulating antibody levels detected in serum (ELISA)” value is “much higher than in the patient who had a moderate tumor mass”. Also, the “specific endogenous anti-nfP2X7 antibody detected in the serum” value (patients without nfP2X7 receptor sink (original tumor cleared), after boost) is given as about 5 mg/kg.

The values are drawn from patent US10543262B2, “Combination therapy utilizing P2X7 peptides” (BIOSCEPTRE (AUST) PTY LTD, priority 2011, dated 2020).
